Experimental data as given in PubChem BioAssay AID330 (DTP/NCI, 2004).
Where “and” joins values, the source holds several entries; their conditions need not be identical. Equal entries are not always repeated. Toxic doses and inconclusive results are not listed. Peptide text beside a SMILES is read from it. * marks the point of attachment. Cbz = O=C(OCc1ccccc1)*; Boc = CC(C)(C)OC(=O)*; NHNH2 = NN*

Tested on: P388 leukemia ip, CD2F1 mice, survival T/C
Assay: NCI In Vivo Anticancer Drug Screen. Data for tumor model P388 Leukemia (intraperitoneal) in CD2F1 (CDF1) mice
Settings: endpoint: median survival time, higher = longer survival
Procedure, shortened: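 Mice carrying the transplanted tumor received test compound or vehicle. Survival was recorded in each group, and the value is the treated-group measurement divided by that of the vehicle-treated control group.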

[1] = dose: 25.0 mg/kg/injection, schedule: Q01DX009 (ip), vehicle: Klucel (hydroxypropylcellulose) (HPC)
[2] = dose: 50.0 mg/kg/injection, schedule: Q01DX009 (ip), vehicle: Klucel (hydroxypropylcellulose) (HPC)
[3] = dose: 200.0 mg/kg/injection, schedule: Q01DX009 (ip), vehicle: Klucel (hydroxypropylcellulose) (HPC)
[4] = dose: 100.0 mg/kg/injection, schedule: Q01DX009 (ip), vehicle: Klucel (hydroxypropylcellulose) (HPC)
[5] = dose: 50.0 mg/kg/injection, schedule: Q01DX005 (ip), vehicle: saline with Tween-80
[6] = dose: 100.0 mg/kg/injection, schedule: Q01DX005 (ip), vehicle: saline with Tween-80
[7] = dose: 200.0 mg/kg/injection, schedule: Q01DX005 (ip), vehicle: saline with Tween-80
[8] = dose: 750.0 mg/kg/injection, schedule: Q01DX009 (ip), vehicle: saline
[9] = dose: 200.0 mg/kg/injection, schedule: Q01DX009 (ip), vehicle: saline
[10] = dose: 12.5 mg/kg/injection, schedule: Q01DX009 (ip), vehicle: other
[11] = dose: 25.0 mg/kg/injection, schedule: Q01DX009 (ip), vehicle: other
[12] = dose: 50.0 mg/kg/injection, schedule: Q01DX009 (ip), vehicle: other
[13] = dose: 100.0 mg/kg/injection, schedule: Q01DX009 (ip), vehicle: other
[14] = dose: 200.0 mg/kg/injection, schedule: Q01DX009 (ip), vehicle: other
[15] = dose: 60.0 mg/kg/injection, schedule: Q01DX005 (ip), vehicle: saline with Tween-80
[16] = dose: 120.0 mg/kg/injection, schedule: Q01DX005 (ip), vehicle: saline with Tween-80
[17] = dose: 25.0 mg/kg/injection, schedule: Q01DX009 (ip), vehicle: saline with Tween-80
[18] = dose: 50.0 mg/kg/injection, schedule: Q01DX009 (ip), vehicle: saline with Tween-80
[19] = dose: 50.0 mg/kg/injection, schedule: Q01DX009 (ip), vehicle: saline
[20] = dose: 100.0 mg/kg/injection, schedule: Q01DX009 (ip), vehicle: saline
[21] = dose: 50.0 mg/kg/injection, schedule: Q01DX005 (ip), vehicle: Klucel (hydroxypropylcellulose) (HPC)
[22] = dose: 100.0 mg/kg/injection, schedule: Q01DX005 (ip), vehicle: Klucel (hydroxypropylcellulose) (HPC)
[23] = dose: 200.0 mg/kg/injection, schedule: Q01DX005 (ip), vehicle: Klucel (hydroxypropylcellulose) (HPC)

## CC(=O)c1cc(C(O)C(O)C(O)C(O)CO)[nH]c1C (stereo not given)
dose: 50.0 mg/kg/injection, schedule: Q01DX005 (ip), vehicle: saline
  T/C: 108 % of control
dose: 100.0 mg/kg/injection, schedule: Q01DX005 (ip), vehicle: saline
  T/C: 108 % of control
dose: 200.0 mg/kg/injection, schedule: Q01DX005 (ip), vehicle: saline
  T/C: 110 % of control

## CS(=O)(=O)c1nc2ccc(N3C(=O)c4ccccc4C3=O)cc2s1
dose: 12.5 mg/kg/injection, schedule: Q01DX009 (ip), vehicle: Klucel (hydroxypropylcellulose) (HPC)
  T/C: 108 % of control
[1]
  T/C: 107 % of control
[2]
  T/C: 110 % of control and 89 % of control
[3]
  T/C: 105 % of control

## C1CSCCCSCCCSCCCSC1
[2]
  T/C: 100 % of control
[4]
  T/C: 99 % of control
[3]
  T/C: 100 % of control

## COc1ccc(/C=C/C(C)=N/NC(N)=O)cc1OC
[5]
  T/C: 102 % of control
[6]
  T/C: 102 % of control
[7]
  T/C: 106 % of control

## O=C(NC(Cc1ccc(O)cc1)C(=O)NC(CO)C(=O)O)OCc1ccccc1 (stereo not drawn) (Cbz-Tyr-Ser-OH; configuration not given here)
[5]
  T/C: 101 % of control
[6]
  T/C: 101 % of control
[7]
  T/C: 106 % of control

## CC(C)[C@](O)(C(=O)OCC1CC[N+]2([O-])CC[C@@H](O)C12)[C@H](C)O (stereo not given in full)
dose: 187.5 mg/kg/injection, schedule: Q01DX009 (ip), vehicle: saline
  T/C: 94 % of control
dose: 375.0 mg/kg/injection, schedule: Q01DX009 (ip), vehicle: saline
  T/C: 106 % of control
[8]
  T/C: 95 % of control
dose: 1500.0 mg/kg/injection, schedule: Q01DX009 (ip), vehicle: saline
  T/C: 106 % of control

## NC(=O)NO
dose: 112.0 mg/kg/injection, schedule: Q03HX024 (ip), vehicle: saline
  T/C: 83 % of control
[9]
  T/C: 160 % of control
dose: 300.0 mg/kg/injection, schedule: Q01DX009 (ip), vehicle: saline
  T/C: 185 % of control
dose: 450.0 mg/kg/injection, schedule: Q01DX009 (ip), vehicle: saline
  T/C: 160 % of control and 184 % of control
dose: 500.0 mg/kg/injection, schedule: Q01DX009 (ip), vehicle: saline
  T/C: 200 % of control
[8]
  T/C: 100 % of control and 98 % of control
dose: 2000.0 mg/kg/injection, schedule: Q01DX001 (ip), vehicle: saline
  T/C: 98 % of control

## COc1ccc(C)cc1C(=C=C=C=C(c1cc(C)ccc1OC)c1ccccc1OCc1ccccc1)c1ccccc1OCc1ccccc1
[1]
  T/C: 101 % of control
[2]
  T/C: 100 % of control
[4]
  T/C: 93 % of control

## [NH-]c1ccccc1[S-].[NH-]c1ccccc1[S-].[Zn]
dose: 100.0 mg/kg/injection, schedule: Q04DX003 (ip), vehicle: saline
  T/C: 98 % of control
dose: 200.0 mg/kg/injection, schedule: Q04DX003 (ip), vehicle: saline
  T/C: 95 % of control
dose: 400.0 mg/kg/injection, schedule: Q04DX003 (ip), vehicle: saline
  T/C: 95 % of control

## CCC(C)C(NC(=O)C(Cc1c[nH]c2ccccc12)NC(=O)OC(C)(C)C)C(=O)NN (stereo not drawn) (Boc-Trp-Ile-NHNH2; configuration not given here)
[10]
  T/C: 97 % of control
[11]
  T/C: 91 % of control
[12]
  T/C: 87 % of control
[13]
  T/C: 94 % of control
[14]
  T/C: 100 % of control

## c1ccc2c(SCCOCCSc3c4ccccc4nc4ccccc34)c3ccccc3nc2c1
[15]
  T/C: 98 % of control
[16]
  T/C: 92 % of control
dose: 240.0 mg/kg/injection, schedule: Q01DX005 (ip), vehicle: saline with Tween-80
  T/C: 90 % of control

## COc1ccc(Cc2nnc(NN)[nH]c2=O)cc1OC
[15]
  T/C: 101 % of control
[16]
  T/C: 97 % of control

## NNC(=O)c1cc2c(cn1)[nH]c1ccccc12
[10]
  T/C: 101 % of control
[11]
  T/C: 98 % of control
[12]
  T/C: 97 % of control
[13]
  T/C: 92 % of control
[14]
  T/C: 101 % of control

## CCOC(=O)C12C=CC(=O)NC1(OC)OC(C)(C)C2 (stereo not given)
dose: 20.0 mg/kg/injection, schedule: Q01DX001 (ip), vehicle: Klucel (hydroxypropylcellulose) (HPC)
  T/C: 95 % of control
dose: 40.0 mg/kg/injection, schedule: Q01DX001 (ip), vehicle: Klucel (hydroxypropylcellulose) (HPC)
  T/C: 93 % of control
dose: 80.0 mg/kg/injection, schedule: Q01DX001 (ip), vehicle: Klucel (hydroxypropylcellulose) (HPC)
  T/C: 89 % of control

## CCOC(=O)C(F)C(Br)C(=O)OCC (stereo not given)
[17]
  T/C: 105 % of control and 120 % of control
[18]
  T/C: 117 % of control
dose: 100.0 mg/kg/injection, schedule: Q01DX009 (ip), vehicle: saline with Tween-80
  T/C: 123 % of control

## COC1=CC[C@H]2[C@H]3Cc4ccc(OC)c5c4[C@@]2(CCN3CC2CC2)C1O5 (stereo not given in full)
dose: 100.0 mg/kg/injection, schedule: Q04DX002 (ip), vehicle: Klucel (hydroxypropylcellulose) (HPC)
  T/C: 97 % of control
dose: 200.0 mg/kg/injection, schedule: Q04DX002 (ip), vehicle: Klucel (hydroxypropylcellulose) (HPC)
  T/C: 102 % of control

## CC(C)C1C(=O)NC(c2ccc(N)cc2)c2ccccc21 (stereo not given)
dose: 12.5 mg/kg/injection, schedule: Q01DX009 (ip), vehicle: saline with Tween-80
  T/C: 104 % of control
[17]
  T/C: 94 % of control
[18]
  T/C: 93 % of control
[19]
  T/C: 105 % of control
[9]
  T/C: 90 % of control

## Cc1cccc(NC(=O)NC2CCCC(C)C2)c1 (stereo not given)
[19]
  T/C: 98 % of control
[20]
  T/C: 93 % of control
[9]
  T/C: 91 % of control

## CN(NC(=O)C(=O)NCc1ccco1)C(=O)Nc1ccccc1
[21]
  T/C: 100 % of control
[22]
  T/C: 99 % of control
[23]
  T/C: 99 % of control

## Cc1cn(CC2C=CC(CS[As](C)C)O2)c(=O)[nH]c1=O (stereo not given)
dose: 12.5 mg/kg/injection, schedule: Q01DX009 (ip), vehicle: distilled water + Tween-80
  T/C: 99 % of control
dose: 25.0 mg/kg/injection, schedule: Q01DX009 (ip), vehicle: distilled water + Tween-80
  T/C: 108 % of control
dose: 50.0 mg/kg/injection, schedule: Q01DX009 (ip), vehicle: distilled water + Tween-80
  T/C: 101 % of control
dose: 100.0 mg/kg/injection, schedule: Q01DX009 (ip), vehicle: distilled water + Tween-80
  T/C: 119 % of control

## OCCSc1nc2ccc(N=Cc3ccccc3O)cc2s1
[2]
  T/C: 100 % of control
[4]
  T/C: 100 % of control
[3]
  T/C: 90 % of control

## CCCC[N+](CCCC)=c1ccc2nc3c(C)cc(N(CC)CC)cc3sc-2c1
dose: 0.75 mg/kg/injection, schedule: Q01DX005 (ip), vehicle: saline
  T/C: 111 % of control
dose: 1.5 mg/kg/injection, schedule: Q01DX005 (ip), vehicle: saline
  T/C: 112 % of control
dose: 3.0 mg/kg/injection, schedule: Q01DX005 (ip), vehicle: saline
  T/C: 118 % of control and 120 % of control

## O=C1OC(C(O)CO)/C(=N\O)C1O (stereo not given)
[19]
  T/C: 104 % of control
[20]
  T/C: 104 % of control
[9]
  T/C: 111 % of control

## COc1cc2c(cc1Cl)nc1c(=O)[nH]c(=O)nc-1n2CCN1CCCC1
dose: 12.5 mg/kg/injection, schedule: Q01DX005 (ip), vehicle: saline with Tween-80
  T/C: 100 % of control
dose: 25.0 mg/kg/injection, schedule: Q01DX005 (ip), vehicle: saline with Tween-80
  T/C: 108 % of control
[5]
  T/C: 111 % of control and 115 % of control
[6]
  T/C: 116 % of control
[7]
  T/C: 114 % of control

## C=CCNC(=S)NNC(=O)Cc1nc2ccccc2[nH]1
[21]
  T/C: 98 % of control
[22]
  T/C: 97 % of control
[23]
  T/C: 92 % of control

## COc1ccccc1NC(=O)C1=C(C)NC(C)=C(C(=O)Nc2ccccc2OC)C1c1c(Cl)cccc1Cl
[5]
  T/C: 94 % of control
[6]
  T/C: 98 % of control
[7]
  T/C: 95 % of control

## CCC1C2CCCCN3C(C4CC(C)C(=O)O4)CC(C4C(C)C(=O)OC14)C23 (stereo not given)
[21]
  T/C: 101 % of control
[22]
  T/C: 96 % of control
[23]
  T/C: 97 % of control
dose: 400.0 mg/kg/injection, schedule: Q01DX005 (ip), vehicle: Klucel (hydroxypropylcellulose) (HPC)
  T/C: 91 % of control
